Results reported in patent US20050187302A1, “Method for treatment or prevention of osteoporosis in individuals with high bone turnover” (Hormos Medical Corporation, priority 2004, published 2005).
Like-named read-outs stand apart in the source and are kept apart here.

Assays:
postmenopausal women = postmenopausal women with high bone marker levels at baseline, daily doses 60 mg and 90 mg, 12 weeks
Protocol: In the clinical trials, bone turnover was evaluated by measuring the levels of bone formation markers in serum and bone resorption markers in urine. Both bone resorption markers e.g. amino terminal telopeptide of type I collagen (U-NTX) and carboxy terminal telopeptide of type I collagen (U-CTX) and formation markers e.g. amino terminal propeptide of type I procollagen (S-PINP) and carboxy terminal propeptide of type I procollagen (S-PICP) are increased in menopause, indicating high bone turnover.
Most of the women had normal bone marker levels at baseline. […] The upper limit of normal range in women was 84 μg/l for S-PINP, 65 nmol/mmol Crea for U-NTX, 170 μg/l for S-PICP and 680 μg/mmol Crea for U-CTX.

[1] = test system: ovariectomized (OVX) female rats; details: for Urine total pyridinoline/deoxypyridoline crosslinks, change from base line at 30 days: started one day after OVX, 30 days after OVX; for Trabecular BMD mg/cm^2: 3 months treatment, tibial trabecular bone
Protocol: (§1) High bone turnover was induced to 2-4 months old female rats by ovariectomy (OVX). Treatment with ospemifene was started at different time points after OVX: 1 day, 1, 2, and 3 months after OVX. Bone resorption was evaluated in short-term by bone specific TRAP5b, which is a […] secreted specifically by osteoclasts, and later by pyridinoline/deoxypyridinoline cross links, which are degradation products of bone collagen and excreted in the urine. Finally, during autopsy, usually after 3 months treatment, trabecular bone mineral density was measured.
Female rats, age about 4 months, were ovariectomized. Treatment with vehicle or ospemifene was started at different periods after OVX (from one day to 3 months). The ospemifene doses were 5, 10 or 25 mg/kg and the treatment period was 3 months. Evaluation of the bone occurred by bone mineral density measurement of tibial trabecular bone after the treatment and in some groups also by bone collagen degradation products excreted in the urine.

[2] = test system: ovariectomized (OVX) female rats; details: female rats 2 months old, ospemifene 10 mg/kg, change from baseline, n = 6
Protocol: as §1

## OCCOc1ccc(/C(=C(/CCCl)c2ccccc2)c2ccccc2)cc1 [Ospemifene]
Postmenopausal women
  Change in bone formation and resorption markers (S-PINP, S-PICP, U-CTX, U-NTX) (in words): large decrease both in formation and resorption bone markers
[1]; 5 mg/kg daily
  Urine total pyridinoline/deoxypyridoline crosslinks, change from base line at 30 days: 55 ± 16
[1]; 5 mg/kg, treatment started 1 day after OVX, n = 20
  Trabecular BMD mg/cm^2: 374 ± 21 mg/cm^2
[1]; 10 mg/kg, treatment started 1 month after OVX, n = 8
  Trabecular BMD mg/cm^2: 138 ± 24 mg/cm^2
[1]; 10 mg/kg, treatment started 2 months after OVX, n = 8
  Trabecular BMD mg/cm^2: 78 ± 14 mg/cm^2
[1]; 10 mg/kg, treatment started 3 months after OVX, n = 8
  Trabecular BMD mg/cm^2: 78 ± 17 mg/cm^2
[1]; 25 mg/kg daily
  Urine total pyridinoline/deoxypyridoline crosslinks, change from base line at 30 days: 33 ± 20
[1]; 25 mg/kg, treatment started 1 day after OVX, n = 20
  Trabecular BMD mg/cm^2: 392 ± 15 mg/cm^2
[1]; first month after OVX, high bone turnover
  Excretion of crosslinks, resorption marker (in words): significantly decreases the excretion of crosslinks
[1]; treatment started 1 month after OVX, bone turnover high
  Effect on OVX-induced bone loss (in words): significant beneficial bone effect
[1]; treatment started 2 months after OVX, bone turnover markedly decreased
  Effect on OVX-induced bone loss (in words): modest beneficial bone effect
[1]; treatment started 3 months after OVX, bone turnover low
  Effect on OVX-induced bone loss (in words): almost lost the benefial bone effect
[1]; treatment started 1 day after OVX, bone turnover very high
  Effect on OVX-induced bone loss (in words): able to prevent almost completely the OVX-induced bone loss
[2]
  Change of TRAP5b activity in serum (%) 2 days after OVX: −23.3 ± 5.8%
